{
  "source": "patent US10954549B2",
  "about": "“Detection and classification of an anticoagulant using a clotting assay” (Haemonetics Corporation, priority 2014, dated 2021)",
  "key": {"citrated whole blood [1]": {"system": "citrated whole blood", "experiment": "TEG Kaolin test of blood spiked with anticoagulant", "format": "biochemical, human", "conditions": "for R value versus control reference range: reference range about 5 to about 10 minutes; for MA values versus control: all studied concentrations; for R, K, α, and MRTG parameters, statistical significance versus control: three concentrations per drug, Example 1; for MRTG / TMRTG: Kaolin", "from_the_text": "(§1) The TEG clotting assay was used to determine if low, normal, and high doses of dabigatran, rivaroxaban, and apixaban could be detected in blood spiked with these compounds. Three oral anticoagulants (OAC), namely dabigatran, rivaroxaban, and apixaban, were spiked into blood obtained from 14 healthy volunteer human donors. For each OAC tested, citrated blood from three donors was spiked with three different concentrations of the active drug (i.e., the compound). The spiked blood samples and control samples spiked with diluent were tested with the TEG® 5000 Thrombelastograph® Hemostasis Analyzer (Haemonetics Corporation, Braintree, Mass., USA) using the Kaolin and RapidTEG® reagents (Haemonetics). Each sample was run in triplicate. All samples were tested with and without ecarin (purchased from Enzyme Research Laboratories, South Bend, IN). This study was IRB approved and all donors were over 18 and signed informed consent forms.\nDabigatran stock was prepared from the active dabigatran moiety (Alsachim, France) by dissolution in 0.1M HCl and further dilution in 1:1 DMSO:H20. […] Tubes of citrated blood were spiked with this dabigatran stock to create final concentrations of 500, 200, and 50 ng/mL of citrated whole blood.\nRivaroxaban stock was prepared by agitation of a 20 mg Xarelto tablet (Jannsen, Titusville, N.J.) in a 1:1 DMSO: H20 solution, which was diluted to a final concentration of 20 ng/uL rivaroxaban in 1:1 DMSO:H20. Tubes of citrated blood were spiked with this rivaroxaban stock to create final concentrations of 500, 89, and 22 ng/mL in citrated whole blood. […] Apixaban stock was prepared in a similar manner from a 2.5 mg Eliquis tablet (Bristol-Myers Squibb, New York, N.Y.), with final concentrations of 1000, 500, and 250 ng/mL in whole blood. Apixaban is approved for prevention of VTE in elective hip or knee replacement surgery (2.5 mg BID) and for prevention of stroke and systemic embolism in patients with non-valvular AF (5 mg BID) (see Bristol-Myers SP, EEIG. apixaban summary of product characteristics). […] Control samples, prepared for each tested drug, included a solvent control containing only citrated blood and the diluent used to dilute the drug stock, and an unadulterated citrate blood tube.\nTesting was performed on TEG-5000 analyzers (Haemonetics Corp., Braintree, Mass., USA) using Kaolin vials, 0.2M CaCl2, RapidTEG (rTEG) vials, diluent water, and disposable clear cups and pins provided by the manufacturer (Haemonetics, Braintree, Mass.), and ecarin (Enzyme Research Laboratories, South Bend, Ind.). All testing was performed in triplicate at each dose, and allowed to continue until the MA (maximum amplitude) parameter defined. The various components of the TEG tracing are depicted in FIG. 3A. The Kaolin test generates an R parameter, which is measured in minutes, and is the time elapsed from the initiation of the test until the point where the onset of clotting provides enough resistance to produce a 2 mm amplitude reading on the TEG tracing. This parameter represents the initiation phase of coagulation related to the function of enzymatic clotting factors. The R parameter has a normal range of 5 to 10 min for kaolin. A prolonged R time indicates slower clot formation. K is a measurement of the time interval from the split point to the point where fibrin cross-linking provides enough clot resistance to produce a 20 mm amplitude reading. The α angle is the angle formed by the slope of a tangent line traced from the R to the K time and a central line measured in degrees. K time and the α angle denote the rate at which the clot strengthens, and is representative of thrombin's cleaving of the available fibrinogen into fibrin. The MA indicates the point at which clot strength reaches its maximum amplitude, measured in millimeters on the TEG tracing, and reflects the end result of maximal platelet-fibrin interaction via the GPIIb-IIIa receptors (see Khurana S et al., J Lab Clin Med. 130:401-411, 1997). […]"}, "citrated whole blood [2]": {"system": "citrated whole blood", "experiment": "TEG kaolin with ecarin test of spiked blood", "format": "biochemical, human", "conditions": "for R value with ecarin versus reference range: Example 2, three dosage levels, kaolin reference range about 5 to about 10 minutes; for R time in the presence versus absence of ecarin: FIGS. 8A-8C; for MA values with ecarin relative to samples run without ecarin: kaolin test; for R, K and TMRTG values on addition of ecarin to the kaolin test / α and MRTG values on addition of ecarin to the kaolin test: treated and control groups", "from_the_text": "as §1\nFor the kaolin test, 1 mL of citrated blood sample was mixed with kaolin and 340 microliters (μL) of this blood was added to a TEG cup containing 20 μL of 0.2M CaCl2 for recalcification. The kaolin with ecarin test was performed in a similar fashion, using 20 μL of an ecarin/CaCl2 solution (0.16 M CaCl2; 19 EU/mL ecarin).\nEcarin is derived from the venom of the saw-scaled viper, Echis carinatus. Ecarin activates prothrombin (the precursor of thrombin—see FIG. 5). This activation of prothrombin by ecarin produces meizothrombin, a prothrombin-thrombin intermediate which has a low level of procoagulant enzymatic activity.\nHealthy human volunteers (who are not being administered any anticoagulant), donated blood. Following donation, the blood collected from the donors (which was added to citrate to prevent clotting) was divided into portions, and portions of the blood were spiked with either nothing, dabigatran, or rivaroxaban. The portions were then assayed using thromboelastography, including assays performed in the presence of ecarin."}, "citrated whole blood [3]": {"system": "citrated whole blood", "experiment": "rTEG with ecarin test of spiked blood", "format": "biochemical, human", "from_the_text": "as §1\n340 μL of the citrated blood sample was added to the cup with these two reagents, and the contents of the cup were mixed 3 times by drawing the contents of the cup up into the pipette and redispensing it into the cup. The test was started immediately after mixing and allowed to run until the MA parameter had defined. The rTEG with ecarin test was performed as the rTEG test above, using 20 μL of an ecarin/CaCl2 solution (0.16M CaCl2; 19EU/mL ecarin)."}, "[4]": {"system": "blood from healthy volunteers", "experiment": "Thromboelastography R time of spiked blood in the presence of the FXa reagent", "format": "biochemical, human", "conditions": "in vitro spiking, increasing concentrations", "method": "Blood from healthy volunteers known not to be taking any oral anticoagulant and without any other significant health issues are analyzed using the FXa or the Ecarin reagent in a TEG® hemostasis analyzer. The FXa reagent (i.e., the Factor Xa reagent) is used to detect the presence (or absence) of an anticoagulant in the blood component being tested. In absence of any oral anticoagulant, the FXa reagent will accelerate the clotting process and result in a very short R-time. In presence of direct thrombin inhibitors and/or anti-Factor Xa anticoagulant(s), the process is slowed down and will cause elongation of the R-time. This difference in R-time is utilized to detect the presence of the oral anticoagulant. The R-time generated from multiple donors was used to construct a reference range. Blood was spiked with either direct thrombin inhibitors or anti-Xa(s) at different concentrations and analyzed using the FXa reagent or the Ecarin reagent. The drug concentrations chosen represent the published therapeutic ranges for these two classes of drugs. This assay was repeated in multiple donors to account for possible donor variations."}, "[5]": {"conditions": "cited from earlier work"}, "[6]": {"conditions": "blood spiked with 50 ng/ml dabigatran"}, "[7]": {"conditions": "blood spiked with 200 ng/ml dabigatran"}, "[8]": {"conditions": "blood spiked with 500 ng/ml dabigatran"}},
  "data": [
    {"molecule": "O=C(NC[C@H]1CN(c2ccc(N3CCOCC3=O)cc2)C(=O)O1)c1ccc(Cl)s1", "note": "[rivaroxaban, Rivaroxaban]", "values": [
      {"measurement": "R value versus control reference range", "setting": "citrated whole blood [1]; 500 ng/ml (highest dosage)", "value": "outside of the normal (i.e., control) reference range"},
      {"measurement": "MA values versus control", "setting": "citrated whole blood [1]", "value": "did not change"},
      {"measurement": "R time versus non-spiked blood sample", "setting": "citrated whole blood [1]; highest concentration tested", "value": "significantly higher"},
      {"measurement": "R value versus control reference range", "setting": "citrated whole blood [1]; lower two doses (22 and 89 ng/ml)", "value": "within the control reference range"},
      {"measurement": "R, K, α, and MRTG parameters, statistical significance versus control", "setting": "citrated whole blood [1]", "value": "only achieved statistical significance for the higher concentrations"},
      {"measurement": "R value with ecarin versus reference range", "setting": "citrated whole blood [2]", "value": "dramatically shortened and all three dosage levels fall outside of the control reference range"},
      {"measurement": "R time in the presence versus absence of ecarin", "setting": "citrated whole blood [2]", "value": "equivalent and significant shortening of R time"},
      {"measurement": "MA values with ecarin relative to samples run without ecarin", "setting": "citrated whole blood [2]", "value": "did not change"},
      {"measurement": "R, K and TMRTG values on addition of ecarin to the kaolin test", "setting": "citrated whole blood [2]", "value": "significant decrease"},
      {"measurement": "α and MRTG values on addition of ecarin to the kaolin test", "setting": "citrated whole blood [2]", "value": "significant increase"},
      {"measurement": "TEG-ACT times on addition of ecarin to the RapidTEG test", "setting": "citrated whole blood [3]", "value": "significantly decreases"},
      {"measurement": "TMRTG times on addition of ecarin to the RapidTEG test", "setting": "citrated whole blood [3]", "value": "significantly decreases"},
      {"measurement": "RapidTEG α angle when ecarin was added", "setting": "citrated whole blood [3]; any of the studied concentrations", "value": "did not change"},
      {"measurement": "RapidTEG K values when ecarin was added", "setting": "citrated whole blood [3]; middle concentration (89 ng/mL)", "value": "significantly decreased"},
      {"measurement": "R-time compared to the reference range, FXa reagent", "setting": "[4]", "value": "dose dependent elongation of the R-time"},
      {"measurement": "half-lives compared", "setting": "[5]; in vivo", "value": "shorter half-lives than dabigatran"},
      {"measurement": "Cmax", "setting": "[5]; oral dose of 10 mg", "value": 141, "unit": "ng/mL"}
    ]},
    {"molecule": "dabigatran", "values": [
      {"measurement": "R value versus control reference range", "setting": "citrated whole blood [1]; 50 ng/ml (lowest dosage)", "value": "outside of the normal (i.e., control) reference range"},
      {"measurement": "R value, dose dependence", "setting": "citrated whole blood [1]; 50, 200, 500 ng/ml", "value": "increases the R value of the tested blood components in a dose dependent manner"},
      {"measurement": "R, α, and TMRTG parameters between concentrations", "setting": "citrated whole blood [1]; 500, 200, 50 ng/mL", "value": "significantly different between all concentrations"},
      {"measurement": "R time versus non-spiked blood sample", "setting": "citrated whole blood [1]; all doses", "value": "significantly higher"},
      {"measurement": "MA values versus control", "setting": "citrated whole blood [1]", "value": "did not change"},
      {"measurement": "MRTG", "setting": "citrated whole blood [1]; [6]", "value": 13, "unit": "mm/min"},
      {"measurement": "TMRTG", "setting": "citrated whole blood [1]; [6]", "value": 13, "unit": "min"},
      {"measurement": "MRTG", "setting": "citrated whole blood [1]; [7]", "value": 12, "unit": "mm/min"},
      {"measurement": "TMRTG", "setting": "citrated whole blood [1]; [7]", "value": 18, "unit": "min"},
      {"measurement": "MRTG", "setting": "citrated whole blood [1]; [8]", "value": 7, "unit": "mm/min"},
      {"measurement": "TMRTG", "setting": "citrated whole blood [1]; [8]", "value": 22, "unit": "min"},
      {"measurement": "R, K, α, and MRTG parameters, statistical significance versus control", "setting": "citrated whole blood [1]", "value": "able to detect the presence of all tested concentrations"},
      {"measurement": "R, kaolin test with ecarin", "setting": "citrated whole blood [2]; 500, 200, 50 ng/mL", "value": "only a dose related decrease of the R"},
      {"measurement": "R value with ecarin versus reference range", "setting": "citrated whole blood [2]", "value": "shortened and approaches the normal reference range"},
      {"measurement": "R time in the presence versus absence of ecarin", "setting": "citrated whole blood [2]", "value": "concentration dependent decrease in R time"},
      {"measurement": "MA values with ecarin relative to samples run without ecarin", "setting": "citrated whole blood [2]", "value": "did not change"},
      {"measurement": "R, K and TMRTG values on addition of ecarin to the kaolin test", "setting": "citrated whole blood [2]", "value": "significant decrease"},
      {"measurement": "α and MRTG values on addition of ecarin to the kaolin test", "setting": "citrated whole blood [2]", "value": "significant increase"},
      {"measurement": "TEG-ACT times on addition of ecarin to the RapidTEG test", "setting": "citrated whole blood [3]", "value": "significantly decreases"},
      {"measurement": "TMRTG times on addition of ecarin to the RapidTEG test", "setting": "citrated whole blood [3]", "value": "significantly decreases"},
      {"measurement": "MA value on addition of ecarin to the RapidTEG test", "setting": "citrated whole blood [3]; 200 ng/mL, still within normal range", "value": "significantly decreased"},
      {"measurement": "RapidTEG α angle when ecarin was added", "setting": "citrated whole blood [3]; lowest concentrations (200 ng/mL, 50 ng/mL)", "value": "decrease of the angle value"},
      {"measurement": "RapidTEG K values when ecarin was added", "setting": "citrated whole blood [3]; middle concentration (200 ng/mL)", "value": "increased"},
      {"measurement": "R-time compared to the reference range, FXa reagent", "setting": "[4]", "value": "dose dependent elongation of the R-time"},
      {"measurement": "maximum plasma concentration", "setting": "[5]; 150 mg oral dose", "value": 110, "unit": "ng/mL"},
      {"measurement": "half-life", "setting": "[5]; lengthened in patients with renal dysfunction", "value": "12 to 17", "unit": "h"}
    ]}
  ]
}
